Assay results as given in patent publication US10143748B2, “B-cell reduction using CD37-specific and CD20-specific binding molecules” (Emergent Product Development Seattle, LLC, priority 2005, dated 2018).

Tests used:
C1q = biological target: T1, C1q (Homo sapiens, UniProt P02745+P02746+P02747); test: FITC C1q binding to reagent-coated Ramos B cells in normal human serum; settings: normal human serum 1.25-10%, FIG. 3A
T1 construct: normal human serum (NHS, #A113, Quidel Corp., San Diego, Calif.); tissue Quidel Corp. A113; host or cells: normal human serum (purchased), added to reagent-coated Ramos B cells
T1 sequence (P02745 23-245): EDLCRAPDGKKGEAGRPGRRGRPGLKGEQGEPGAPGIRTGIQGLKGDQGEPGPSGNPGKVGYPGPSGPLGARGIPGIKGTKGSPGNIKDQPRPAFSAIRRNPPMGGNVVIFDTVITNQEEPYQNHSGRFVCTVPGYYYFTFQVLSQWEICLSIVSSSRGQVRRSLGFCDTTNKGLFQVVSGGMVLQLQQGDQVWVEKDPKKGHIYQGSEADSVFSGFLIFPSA
T1 sequence (P02746 28-253): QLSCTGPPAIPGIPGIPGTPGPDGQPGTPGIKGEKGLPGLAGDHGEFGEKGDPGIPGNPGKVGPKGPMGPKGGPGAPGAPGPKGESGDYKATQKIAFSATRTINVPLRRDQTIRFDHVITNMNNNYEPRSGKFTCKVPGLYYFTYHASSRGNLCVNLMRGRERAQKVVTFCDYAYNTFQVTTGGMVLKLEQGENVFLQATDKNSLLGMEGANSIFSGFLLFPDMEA
T1 sequence (P02747 29-245): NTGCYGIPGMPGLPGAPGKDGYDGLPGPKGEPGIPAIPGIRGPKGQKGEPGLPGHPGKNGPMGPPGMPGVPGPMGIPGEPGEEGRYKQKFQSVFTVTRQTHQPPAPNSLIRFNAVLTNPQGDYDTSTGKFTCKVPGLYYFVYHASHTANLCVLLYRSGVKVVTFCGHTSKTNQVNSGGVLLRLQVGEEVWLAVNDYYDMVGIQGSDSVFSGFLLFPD
Experimental: C1q binding studies were performed as previously described (Cragg et al., Blood 2004, 103:2738-2743). Briefly, Ramos B-cells in Iscoves media (#12440-053, Gibco/Invitrogen, Grand island, NY) with no serum were plated in 96-well V bottom plates at 5×10^5/well in 100 μl. Cells were incubated with reagents for 15 minutes at 37° C., and normal human serum (NHS, #A113, Quidel Corp., San Diego, Calif.) diluted in Iscoves was then added at a volume of 50 μl to each well for a final concentration of 10, 5, 2.5, or 1.25% human serum. Fifty μl of media was added to the control well. For cobra venom factor (CVF) experiments, CVF was added to human serum complement samples at 20 Units CVF/mL of serum for 90 minutes at 37° C. prior to addition of serum to complement assays, and the dilution of serum by CVF accounted for when making sample dilutions.
The cells plus complement source were incubated for an additional 5 minutes at 37° C., and washed 2 times with cold PBS (#14040-133, Gibco/Invitrogen, Grand Island, N.Y.) via centrifugation and resuspended in 100 μl of PBS. Fifty μl from each well was transferred to a second plate for second step control staining. […] Samples were washed, resuspended in cold PBS, and read immediately on a FACsCalibur flow cytometer and analyzed with Cell Quest software (Becton Dickinson, San Jose, Calif.).

Ramos B cells [1] = test: CDC assay, Ramos B cells with human serum complement, propidium iodide; type: cell-based; settings: for CDC activity with human complement, single reagent: Ramos B cells, human serum
Experimental: (§1) The cells were incubated 60 minutes at 37° C. […] Samples were incubated 15 minutes at room temperature in the dark prior to analysis by flow cytometry using a FACsCalibur and CellQuest software (Becton Dickinson).
as §1

BJAB B cells = test: ADCC 51Cr release assay, BJAB targets, human PBMC effectors; type: cell-based; settings: 10 ng/mL to 20 μg/mL, effector:target 25:1, 6 hours, FIG. 5C
Experimental: To determine the ADCC activity of SEC fractions, BJAB, Ramos, and Daudi lymphoblastoid B cells (10^7) cells were labeled with 500 μCi/mL ^51Cr sodium chromate for 2 hours at 37° C. in IMDM/10% FBS. PBMCs were isolated from heparinized, human whole blood by fractionation over Lymphocyte Separation Media (LSM, ICN Biomedical) gradients. Reagent samples were added to RPMI media with 10% FBS and five serial dilutions for each reagent were prepared. For combinations, the reagents were premixed and diluted prior to addition to the wells. The ^51Cr labeled BJAB were added at (2×10^4 cells/well). The PBMCs were then added at (5×10^5 cells/well) for a final ratio of 25:1 effectors (PBMC):targets (BJAB). […] CPM released was measured on a Packard TopCounNXT from 50 μl dried culture supernatant. Percent specific killing was calculated by subtracting (cpm [mean of quadruplicate samples] of sample—cpm spontaneous release)/(cpm maximal release-cpm spontaneous release)×100 (FIG. 5C).
BJAB, Ramos, and Daudi lymphoblastoid B cells (10E7) cells were labeled with 500 μCi/mL ^51Cr sodium chromate for 2 hours at 37° C. in IMDM/10% FBS. […] Cells were counted by trypan blue exclusion using a hemacytometer prior to use in subsequent assays. […]
Effectors and targets were added to media alone to measure background killing. […] CPM released was measured on a Packard TopCounNXT. […]

CD37 = biological target: T2, CD37 (Homo sapiens, UniProt P11049); test: binding of TRU-016 SEC fractions to Ramos cells, flow cytometry; set-up: Ramos cells expressing the CD20 and CD37 target antigens; endogenous in cells; host or cells: Ramos B-cell lymphoma line; settings: FITC goat anti-human IgG, FIG. 5A
T2 sequence (P11049 1-281): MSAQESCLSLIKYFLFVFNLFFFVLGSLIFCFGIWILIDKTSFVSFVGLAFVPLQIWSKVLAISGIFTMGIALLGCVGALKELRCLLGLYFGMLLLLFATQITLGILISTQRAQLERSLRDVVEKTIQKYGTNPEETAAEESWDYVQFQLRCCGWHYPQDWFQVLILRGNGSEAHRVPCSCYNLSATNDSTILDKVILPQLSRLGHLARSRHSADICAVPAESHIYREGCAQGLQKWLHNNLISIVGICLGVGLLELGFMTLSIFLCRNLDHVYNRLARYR
Experimental: To determine the binding properties of SEC fractions, cells were suspended in staining media at a concentration of approximately 4×10^6 cells/mL and then plated at 50 μl/well (2×10^5 cells/well) in staining media. Serial dilutions of SEC fractions were then added to sequential wells, incubated for 45 minutes, washed, and binding activity was detected using FITC goat anti-human IgG. Samples were fixed in 200 μl 1% paraformaldehyde in PBS. Cells were analyzed by flow cytometry on a FACsCalibur instrument using Cell Quest software (BD Biosciences, San Jose, Calif.) (FIG. 5A).

Ramos B cells [2] = test: CDC assay, Ramos B cells with rabbit complement; type: cell-based, human; settings: 10 μg/ml reagent, rabbit complement 10, 5 or 2.5%, FIG. 3C
Experimental: Human and rabbit complement were then compared for their CDC activity in the presence of the TRU-016. The CDC activity of TRU-016 molecular forms incubated with Ramos B cells and human or rabbit complement was measured (FIG. 3C). Ramos B cells were added to wells in serum free media. […] Cells plus complement source were incubated 90 minutes at 37° C. Cells were washed once with cold PBS and propidium iodide (Molecular Probes #P3566) added to a final concentration of 0.5 μg/mL in cold PBS. Cells with PI were incubated in the dark at RT for 15 minutes and analyzed by flow cytometry.

Ramos cells = test: ADCC assay, labeled Ramos targets, human PBMC effectors; type: cell-based; settings: effector to target ratio 25:1, FIG. 18D
Experimental: To determine the ADCC activity of SEC fractions, BJAB, Ramos, and Daudi lymphoblastoid B cells (10^7) cells were labeled with 500 μCi/mL ^51Cr sodium chromate for 2 hours at 37° C. in IMDM/10% FBS. PBMCs were isolated from heparinized, human whole blood by fractionation over Lymphocyte Separation Media (LSM, ICN Biomedical) gradients. Reagent samples were added to RPMI media with 10% FBS and five serial dilutions for each reagent were prepared. For combinations, the reagents were premixed and diluted prior to addition to the wells. The ^51Cr labeled BJAB were added at (2×10^4 cells/well). The PBMCs were then added at (5×10^5 cells/well) for a final ratio of 25:1 effectors (PBMC):targets (BJAB). Reactions were set up in quadruplicate wells of a 96 well plate. TRU-016 SEC fractions were added to wells at a final concentration ranging from 10 ng/mL to 20 μg/mL as indicated on the graphs. Each data series plots a different SEC fraction at the titration ranges described. Reactions were allowed to proceed for 6 hours at 37° C. in 5% CO2 prior to harvesting and counting. CPM released was measured on a Packard TopCounNXT from 50 μl dried culture supernatant. Percent specific killing was calculated by subtracting (cpm [mean of quadruplicate samples] of sample—cpm spontaneous release)/(cpm maximal release-cpm spontaneous release)×100 (FIG. 5C).

Daudi cells = test: Annexin V/PI apoptosis analysis, Daudi; type: cell-based, human
Experimental: Further experiments examining the effect of TRU-016 on B cell line apoptosis were performed using the more highly purified dimer form of TRU-016 (FIG. 19B). Samples were analyzed at both 24 and 48 hours after initiation of incubation reactions. Annexin/PI analysis was performed on several cell types using 20 μg/mL TRU-016 protein. Because apoptosis was reduced using the dimer form of TRU-016, 20 μg/mL goat anti-human IgG was added to reactions in order to cross link reagents on the cell surface. Cells were then stained with Annexin V-FITC and propidium iodide.

Substance | FITC C1q binding (C1q) | CDC activity with human complement, single reagent (Ramos B cells [1]) | CDC cell killing in the presence of CVF (Ramos B cells [1]; human serum complement with cobra venom factor, FIG. 3B) | ADCC, % specific killing (BJAB B cells) | binding to Ramos cells (titration curves) (CD37) | CDC activity with human complement, single reagent (Ramos B cells [1]; listed as dimer form of the TRU-016) | CDC activity with human complement, single reagent (Ramos B cells [1]; listed as dimer peak) | CDC activity with rabbit complement (Ramos B cells [2]) | ADCC against Ramos cells (Ramos cells) | apoptosis of Daudi cells with crosslinking agent (Daudi cells; 20 μg/mL plus 20 μg/mL goat anti-human IgG) | apoptosis of Daudi cells (Daudi cells; 20 μg/mL, 24-48 hours, FIG. 19B)
HMW multimer fraction: higher molecular weight multimers of TRU-016 separated by SEC | more binding than the other forms | significant levels of CDC activity | significantly reduced in the presence of CVF | potent, dose-dependent ADCC | better binding |  |  |  |  |  | 
TRU-016 dimer peak: dimer form of TRU-016 isolated by GPC and HPLC fractionation from higher molecular weight multimers |  | poor mediator of CDC |  | potent, dose-dependent ADCC |  | very low CDC activity | very little or no CDC activity | good CDC | significant levels of ADCC | significant increase in the level of CD37 targeted apoptosis | induces apoptosis of Daudi cells
